Results taken from patent US8133998B2, “Bicyclic pyrimidine derivatives as calcium channel blockers” (Zalicus Pharmaceuticals, Ltd., priority 2007, dated 2012).

Experiments:
Experiment in all cases: T-type calcium channel block, whole cell patch clamp in HEK cells
Assay type in all cases: cell-based
[1] = target: T1, human α1I T-type channels (Homo sapiens, UniProt Q9P0X4); conditions: HEK cells stably expressing human α1I; measured at 1 μM drug; mainly non-inactivated protocol
T1 construct: expressed in transfected cells; host or cells: HEK 293
Procedure: (§1) T-type calcium channel blocking activity was assayed in human embryonic kidney cells, HEK 293, stably transfected with the T-type calcium channel subunits. Briefly, cells were cultured in Dulbecco's modified eagle medium (DMEM) supplemented with 10% fetal bovine serum, 200 U/ml penicillin and 0.2 mg/ml streptomycin at 37° C. with 5% CO2. At 85% confluency cells were split with 0.25% trypsin/1 mM EDTA and plated at 10% confluency on glass coverslips. At 12 hours the medium was replaced and the cells stably transfected using a standard calcium phosphate protocol and the appropriate calcium channel cDNA's. Fresh DMEM was supplied and the cells transferred to 28° C./5% CO2. Cells were incubated for 1 to 2 days prior to whole cell recording.
(§2) Standard patch-clamp techniques were employed to identify blockers of T-type currents. Briefly, previously described HEK cell lines stably expressing human α1G, α1H and α1I T-type channels were used for all the recordings (passage #: 4-20, 37° C., 5% CO2). Whole cell patch clamp experiments were performed using an Axopatch 200B amplifier (Axon Instruments, Burlingame, Calif.) linked to a personal computer equipped with pCLAMP software. Data were analyzed using Clampfit (Axon Instruments) and SigmaPlot 4.0 (Jandel Scientific). To obtain T-type currents, plastic dishes containing semi-confluent cells were positioned on the stage of a ZEISS AXIOVERT S100 microscope after replacing the culture medium with external solution (see below). Whole-cell patches were obtained using pipettes (borosilicate glass with filament, O.D.: 1.5 mm, I.D.: 0.86 mm, 10 cm length), fabricated on a SUTTER P-97 puller with resistance values of ˜5 MΩ (see below for internal solution).
(§3) In the non-inactivating protocol, the holding potential is set at −110 mV and with a pre-pulse at −100 mV for 1 second prior to the test pulse at −40 mV for 50 ms. In the inactivation protocol, the pre-pulse is at approximately −85 mV for 1 second, which inactivates about 15% of the T-type channels.
(§4) Test compounds were dissolved in external solution, 0.1-0.01% DMSO. After ˜10 min rest, they were applied by gravity close to the cell using a WPI microfil tubing. The “non-inactivated” pre-pulse was used to examine the resting block of a compound. The “inactivated” protocol was employed to study voltage-dependent block. However, the initial data shown below were mainly obtained using the non-inactivated protocol only. Kd values are shown for various compounds of the invention in Table 4 measured at 1 μM for the drug of interest except for compound 18 which was measured at 200 nM.

[2] = target: T2, human α1H T-type channels (Homo sapiens, UniProt O95180); conditions: HEK cells stably expressing human α1H; measured at 1 μM drug; mainly non-inactivated protocol
T2 construct: expressed in transfected cells; host or cells: HEK 293
Procedure: as §1, §2, §3, §4

[3] = target: T3, human α1G T-type channels (Homo sapiens, UniProt O43497); conditions: HEK cells stably expressing human α1G; measured at 1 μM drug; mainly non-inactivated protocol
T3 construct: expressed in transfected cells; host or cells: HEK 293
Procedure: as §1, §2, §3, §4

T2 sequence (O95180 whole entry): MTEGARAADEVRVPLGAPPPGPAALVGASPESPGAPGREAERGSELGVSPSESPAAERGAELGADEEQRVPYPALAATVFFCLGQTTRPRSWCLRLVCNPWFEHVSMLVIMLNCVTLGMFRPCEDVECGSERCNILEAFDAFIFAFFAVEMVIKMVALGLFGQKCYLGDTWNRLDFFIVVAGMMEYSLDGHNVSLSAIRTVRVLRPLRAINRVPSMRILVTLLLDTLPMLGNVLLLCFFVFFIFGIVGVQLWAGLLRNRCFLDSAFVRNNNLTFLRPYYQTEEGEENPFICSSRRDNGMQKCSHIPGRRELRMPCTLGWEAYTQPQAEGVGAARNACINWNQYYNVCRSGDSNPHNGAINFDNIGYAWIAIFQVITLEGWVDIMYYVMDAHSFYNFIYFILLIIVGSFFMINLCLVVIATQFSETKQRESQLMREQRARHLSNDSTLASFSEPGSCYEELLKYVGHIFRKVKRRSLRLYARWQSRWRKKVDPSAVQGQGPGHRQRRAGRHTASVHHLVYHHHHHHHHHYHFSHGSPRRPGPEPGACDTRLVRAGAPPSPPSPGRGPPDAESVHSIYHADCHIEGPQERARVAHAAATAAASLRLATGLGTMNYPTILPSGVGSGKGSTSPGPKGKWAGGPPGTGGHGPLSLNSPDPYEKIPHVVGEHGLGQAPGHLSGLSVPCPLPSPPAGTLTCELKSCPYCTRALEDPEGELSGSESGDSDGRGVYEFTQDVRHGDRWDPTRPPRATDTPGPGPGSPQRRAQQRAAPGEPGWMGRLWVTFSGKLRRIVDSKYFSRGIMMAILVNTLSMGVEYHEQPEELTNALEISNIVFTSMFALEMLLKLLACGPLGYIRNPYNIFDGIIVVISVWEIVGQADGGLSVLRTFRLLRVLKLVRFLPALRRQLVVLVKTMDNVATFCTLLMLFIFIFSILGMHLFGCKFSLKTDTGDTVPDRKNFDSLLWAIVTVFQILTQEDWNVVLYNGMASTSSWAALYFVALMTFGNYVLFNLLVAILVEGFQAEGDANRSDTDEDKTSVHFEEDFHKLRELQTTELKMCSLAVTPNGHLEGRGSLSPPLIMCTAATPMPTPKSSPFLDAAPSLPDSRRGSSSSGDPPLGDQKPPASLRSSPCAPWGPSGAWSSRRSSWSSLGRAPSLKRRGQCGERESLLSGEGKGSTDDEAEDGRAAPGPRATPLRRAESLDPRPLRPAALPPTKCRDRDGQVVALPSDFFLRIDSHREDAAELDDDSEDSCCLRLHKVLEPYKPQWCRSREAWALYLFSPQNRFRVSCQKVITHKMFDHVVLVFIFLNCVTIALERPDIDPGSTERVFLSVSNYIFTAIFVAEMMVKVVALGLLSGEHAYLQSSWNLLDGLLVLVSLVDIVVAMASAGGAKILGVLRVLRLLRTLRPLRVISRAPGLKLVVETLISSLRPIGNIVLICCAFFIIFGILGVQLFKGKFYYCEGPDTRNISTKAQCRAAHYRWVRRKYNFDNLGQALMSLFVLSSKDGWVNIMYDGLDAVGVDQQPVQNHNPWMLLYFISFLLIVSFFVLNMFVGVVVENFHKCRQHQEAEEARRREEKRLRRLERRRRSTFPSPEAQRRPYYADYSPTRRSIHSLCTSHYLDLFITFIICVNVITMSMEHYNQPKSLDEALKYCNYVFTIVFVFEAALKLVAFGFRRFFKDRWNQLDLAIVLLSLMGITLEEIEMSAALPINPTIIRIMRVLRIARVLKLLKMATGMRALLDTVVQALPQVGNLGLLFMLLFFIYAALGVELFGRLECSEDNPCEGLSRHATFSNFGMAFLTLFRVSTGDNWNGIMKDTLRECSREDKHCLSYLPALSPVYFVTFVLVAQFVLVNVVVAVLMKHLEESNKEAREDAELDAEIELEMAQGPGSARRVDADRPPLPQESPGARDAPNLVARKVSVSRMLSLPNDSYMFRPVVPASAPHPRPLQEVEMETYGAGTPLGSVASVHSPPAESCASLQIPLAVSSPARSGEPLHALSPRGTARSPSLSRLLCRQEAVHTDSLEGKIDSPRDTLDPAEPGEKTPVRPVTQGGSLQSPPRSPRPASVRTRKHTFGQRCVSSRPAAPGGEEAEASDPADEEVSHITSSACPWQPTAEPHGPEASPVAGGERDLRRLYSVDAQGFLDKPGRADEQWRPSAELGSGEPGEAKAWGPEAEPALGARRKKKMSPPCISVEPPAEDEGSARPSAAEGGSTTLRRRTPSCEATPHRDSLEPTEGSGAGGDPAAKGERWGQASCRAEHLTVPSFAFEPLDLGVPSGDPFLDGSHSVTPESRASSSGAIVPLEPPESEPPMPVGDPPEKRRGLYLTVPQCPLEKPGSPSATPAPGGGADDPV
T1 sequence (Q9P0X4 whole entry): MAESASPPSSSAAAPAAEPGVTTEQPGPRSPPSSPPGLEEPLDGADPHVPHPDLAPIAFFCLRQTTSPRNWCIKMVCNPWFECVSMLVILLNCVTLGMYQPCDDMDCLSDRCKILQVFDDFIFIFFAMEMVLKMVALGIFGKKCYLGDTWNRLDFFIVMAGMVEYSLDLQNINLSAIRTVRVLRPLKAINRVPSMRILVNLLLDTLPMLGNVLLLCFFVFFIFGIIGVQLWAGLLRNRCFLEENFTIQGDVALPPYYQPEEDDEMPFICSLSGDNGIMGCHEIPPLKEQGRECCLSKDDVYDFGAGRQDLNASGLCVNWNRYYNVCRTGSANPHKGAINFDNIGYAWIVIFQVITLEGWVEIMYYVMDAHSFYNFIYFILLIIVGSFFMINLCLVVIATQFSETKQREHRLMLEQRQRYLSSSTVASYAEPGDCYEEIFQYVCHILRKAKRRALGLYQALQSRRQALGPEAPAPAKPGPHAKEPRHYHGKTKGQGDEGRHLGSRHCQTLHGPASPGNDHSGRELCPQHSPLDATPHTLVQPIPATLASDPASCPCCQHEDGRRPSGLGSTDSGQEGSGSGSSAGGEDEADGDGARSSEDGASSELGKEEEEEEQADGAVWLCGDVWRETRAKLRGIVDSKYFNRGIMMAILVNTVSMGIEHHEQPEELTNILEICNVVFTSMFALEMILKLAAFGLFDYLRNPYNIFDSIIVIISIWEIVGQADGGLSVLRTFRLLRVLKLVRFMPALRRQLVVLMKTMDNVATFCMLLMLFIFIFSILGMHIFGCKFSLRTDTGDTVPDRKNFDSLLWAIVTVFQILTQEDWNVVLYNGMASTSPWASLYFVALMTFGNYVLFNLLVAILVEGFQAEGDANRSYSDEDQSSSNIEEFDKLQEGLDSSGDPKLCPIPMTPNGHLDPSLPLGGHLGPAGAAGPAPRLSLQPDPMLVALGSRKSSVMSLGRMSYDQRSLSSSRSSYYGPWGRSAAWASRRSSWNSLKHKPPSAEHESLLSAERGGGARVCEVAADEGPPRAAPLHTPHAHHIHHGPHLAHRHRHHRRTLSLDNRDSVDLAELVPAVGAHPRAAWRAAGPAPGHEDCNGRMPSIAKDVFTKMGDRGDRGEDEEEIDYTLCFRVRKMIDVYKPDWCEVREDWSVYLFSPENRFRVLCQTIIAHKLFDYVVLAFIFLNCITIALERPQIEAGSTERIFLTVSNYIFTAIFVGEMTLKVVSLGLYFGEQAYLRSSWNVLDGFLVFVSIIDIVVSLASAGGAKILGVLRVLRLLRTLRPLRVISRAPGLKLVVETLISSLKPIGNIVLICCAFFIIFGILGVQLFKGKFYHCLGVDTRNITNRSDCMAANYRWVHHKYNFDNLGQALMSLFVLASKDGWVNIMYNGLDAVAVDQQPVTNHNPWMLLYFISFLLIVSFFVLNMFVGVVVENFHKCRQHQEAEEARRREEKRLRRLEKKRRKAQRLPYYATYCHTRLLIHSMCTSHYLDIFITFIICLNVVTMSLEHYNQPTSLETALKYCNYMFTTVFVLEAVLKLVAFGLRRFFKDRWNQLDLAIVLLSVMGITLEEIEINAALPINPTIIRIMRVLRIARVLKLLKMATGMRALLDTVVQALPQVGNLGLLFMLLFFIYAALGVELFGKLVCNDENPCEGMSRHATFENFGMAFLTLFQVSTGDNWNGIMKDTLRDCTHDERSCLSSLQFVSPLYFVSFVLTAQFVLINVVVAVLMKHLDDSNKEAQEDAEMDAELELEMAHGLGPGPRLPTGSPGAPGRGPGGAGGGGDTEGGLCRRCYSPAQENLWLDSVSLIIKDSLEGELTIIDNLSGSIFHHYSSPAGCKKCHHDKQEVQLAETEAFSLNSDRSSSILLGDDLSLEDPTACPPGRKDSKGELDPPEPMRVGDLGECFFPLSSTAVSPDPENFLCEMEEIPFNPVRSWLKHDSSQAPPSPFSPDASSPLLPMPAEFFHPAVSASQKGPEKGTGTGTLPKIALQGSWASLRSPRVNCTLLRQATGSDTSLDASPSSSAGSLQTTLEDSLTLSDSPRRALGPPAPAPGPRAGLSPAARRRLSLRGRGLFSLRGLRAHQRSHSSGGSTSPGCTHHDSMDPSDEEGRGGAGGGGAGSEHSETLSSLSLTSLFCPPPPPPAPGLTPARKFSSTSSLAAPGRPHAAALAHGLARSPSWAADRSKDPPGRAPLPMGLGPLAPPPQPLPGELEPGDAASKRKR

| Kd [1] [nM] | Kd [2] [nM] | Kd [3] [nM] | SMILES |
| --- | --- | --- | --- |
| 2380 | 360 | 3600 | Cc1c(C(=O)N2CCN(c3ccccc3)CC2)sc2ncn(CC(=O)NC3CCCCC3)c(=O)c12 [Compound 19, N-cyclohexyl-2-(5-methyl-4-oxo-6-(4-phenylpiperazine-1-carbonyl)thieno[2,3-d]pyrimidin-3(4H)-yl)acetamide] |
| 5200 | 190 | 610 | Cc1c(C(=O)N2CCN(c3cccc(F)c3)CC2)sc2ncn(CC(=O)NC3CCCCC3)c(=O)c12 [Compound 21, N-cyclohexyl-2-(6-(4-(3-fluorophenyl)piperazine-1-carbonyl)-5-methyl-4-oxothieno[2,3-d]pyrimidin-3(4H)-yl)acetamide] |
| – | 430 | 1360 | Cc1c(C(=O)N2CCN(c3ccc(F)cc3)CC2)sc2ncn(CC(=O)NC3CCCCC3)c(=O)c12 [Compound 22, N-cyclohexyl-2-(6-(4-(4-fluorophenyl)piperazine-1-carbonyl)-5-methyl-4-oxothieno[2,3-d]pyrimidin-3(4H)-yl)acetamide] |
| 3270 | 280 | 1260 | Cc1c(C(=O)N2CCN(c3ccccc3F)CC2)sc2ncn(CC(=O)NC3CCCCC3)c(=O)c12 [Compound 23, N-cyclohexyl-2-(6-(4-(2-fluorophenyl)piperazine-1-carbonyl)-5-methyl-4-oxothieno[2,3-d]pyrimidin-3(4H)-yl)acetamide] |
| 1520 | 90 | 300 | Cc1c(C(=O)N2CCN(c3cccc(Cl)c3)CC2)sc2ncn(CC(=O)NC3CCCCC3)c(=O)c12 [Compound 24, 2-(6-(4-(3-chlorophenyl)piperazine-1-carbonyl)-5-methyl-4-oxothieno[2,3-d]pyrimidin-3(4H)-yl)-N-cyclohexylacetamide] |
| – | 750 | 1720 | Cc1c(C(=O)N2CCN(c3ccccc3F)CC2)sc2ncn(CC(=O)NC3CCCC3)c(=O)c12 [Compound 36, N-cyclopentyl-2-(6-(4-(2-fluorophenyl)piperazine-1-carbonyl)-5-methyl-4-oxothieno[2,3-d]pyrimidin-3(4H)-yl)acetamide] |
| – | 400 | 620 | Cc1c(C(=O)N2CCN(c3cccc(Cl)c3)CC2)sc2ncn(CC(=O)N3CCC(F)(F)C3)c(=O)c12 [Compound 78, 6-(4-(3-chlorophenyl)-piperazine-1-carbonyl)-3-(2-(3,3-difluoropyrrolidin-1-yl)-2-oxoethyl)-5-methylthieno[2,3-d]pyrimidin-4(3H)-one] |
| – | 720 | 1680 | Cc1c(C(=O)N2CCN(c3ccccc3F)CC2)sc2ncn(CC(=O)N3CCCCC3)c(=O)c12 [Compound 81, 6-(4-(2-fluorophenyl)piperazine-1-carbonyl)-5-methyl-3-(2-oxo-2-(piperidin-1-yl)ethyl)thieno[2,3-d]pyrimidin-4(3H)-one] |
| – | 420 | 630 | Cc1c(C(=O)N2CCN(c3ccccc3F)CC2)sc2ncn(CC(=O)N3CCC(C(F)(F)F)CC3)c(=O)c12 [Compound 89, 6-(4-(2-fluorophenyl)piperazine-1-carbonyl)-5-methyl-3-(2-oxo-2-((4-trifluoromethyl)piperidin-1-yl)ethyl) thieno[2,3-d]pyrimidin-4(3H)-one] |
| – | 18200 | 510 | Cc1c(C(=O)N2CCN(c3ccc(F)c(Cl)c3)CC2)sc2ncn(CC(=O)N3CCCC3)c(=O)c12 [Compound 134, 6-(4-(3-chloro-4-fluoro-phenyl)piperazine-1-carbonyl)-5-methyl-3-(2-oxo-2-(pyrrolidin-1-yl)ethyl)thieno[2,3-d]pyri-midin-4(3H)-one] |
| – | > 8440 | 1800 | Cc1c(C(=O)N2CCN(c3ccc(F)c(Cl)c3)CC2)sc2ncn(CC(=O)N3CC[C@H](F)C3)c(=O)c12 [Compound 137, (S)-6-(4-(3-chloro-4-fluoro-phenyl)piperazine-1-carbonyl)-3-(2-(3-fluoro-pyrrolidin-1-yl)-2-oxoethyl)-5-methyl-thieno[2,3-d]pyrimidin-4(3H)-one] |

Second part, the compound before the results:

| SMILES | Kd [1] [nM] | Kd [2] [nM] | Kd [3] [nM] |
| --- | --- | --- | --- |
| CCN(CC)C(=O)Cn1cnc2sc(C(=O)N3CCN(c4ccc(Cl)c(Cl)c4)CC3)c(C)c2c1=O [Compound 6, 2-(6-(4-(3,4-dichlorophenyl)piperazine-1-carbonyl)-5-methyl-4-oxothieno[2,3-d]pyrimidin-3(4H)-yl)-N,N-diethylacetamide] | 9670 | 340 | 950 |
| CCN(CC)C(=O)Cn1cnc2sc(C(=O)N3CCN(c4ccc(Cl)c(C(F)(F)F)c4)CC3)c(C)c2c1=O [Compound 8, 2-(6-(4-(4-chloro-3-(trifluoromethyl)phenyl)piperazine-1-carbonyl)-5-methyl-4-oxothieno[2,3-d]pyrimidin-3(4H)-yl)-N,N-diethylacetamide] | – | 540 | 450 |
| CCN(CC)C(=O)Cn1cnc2sc(C(=O)N3CCN(c4ccc(C(F)(F)F)cc4)CC3)c(C)c2c1=O [Compound 10, N,N-diethyl-2-(5-methyl-4-oxo-6-(4-(4-(trifluoromethyl)phenyl)piperazine-1-carbonyl)thieno[2,3-d]pyrimidin-3(4H)-yl)acetamide] | > 31300 | 300 | 1220 |
| Cc1c(C(=O)N2CCN(c3cccc(C(F)(F)F)c3)CC2)sc2ncn(CC(=O)NC(C)(C)C)c(=O)c12 [Compound 12, N-tert-butyl-2-(5-methyl-4-oxo-6-(4-(3-(trifluoromethyl)phenyl)piperazine-1-carbonyl)thieno[2,3-d]pyrimidin-3(4H)-yl)acetamide] | – | 1060 | 1960 |
| Cc1c(C(=O)N2CCN(c3ccc(Cl)cc3)CC2)sc2ncn(CC(=O)NC(C)(C)C)c(=O)c12 [Compound 15, N-tert-butyl-2-(6-(4-(4-chlorophenyl)piperazine-1-carbonyl)-5-methyl-4-oxothieno[2,3-d]pyrimidin-3(4H)-yl)acetamide] | – | 870 | 2370 |
| Cc1c(C(=O)N2CCN(c3cccc(Cl)c3)CC2)sc2ncn(CC(=O)NC(C)(C)C)c(=O)c12 [Compound 16, N-tert-butyl-2-(6-(4-(3-chlorophenyl)piperazine-1-carbonyl)-5-methyl-4-oxothieno[2,3-d]pyrimidin-3(4H)-yl)acetamide] | – | 630 | 1370 |
| Cc1c(C(=O)N2CCN(c3cc(C(F)(F)F)cc(C(F)(F)F)c3)CC2)sc2ncn(CC(=O)NC(C)(C)C)c(=O)c12 [Compound 17, 2-(6-(4-(3,5-bis(trifluoromethyl)phenyl)piperazine-1-carbonyl)-5-methyl-4-oxothieno[2,3-d]pyrimidin-3(4H)-yl)-N-tert-butylacetamide] | – | 500 | 510 |
| Cc1c(C(=O)N2CCN(c3ccc(Cl)cc3)CC2)sc2ncn(CC(=O)NC3CCCCC3)c(=O)c12 [Compound 20, 2-(6-(4-(4-chlorophenyl)piperazine-1-carbonyl)-5-methyl-4-oxothieno[2,3-d]pyrimidin-3(4H)-yl)-N-cyclohexylacetamide] | 2100 | 180 | 330 |
| CCN(CC(F)(F)F)C(=O)Cn1cnc2sc(C(=O)N3CCN(c4cccc(Cl)c4)CC3)c(C)c2c1=O [Compound 127, 2-(6-(4-(3-chlorophenyl)piperazine-1-carbonyl)-5-methyl-4-oxothieno[2,3-d]pyrimidin-3(4H)-yl)-N-ethyl-N-(2,2,2-trifluoroethyl)acetamide] | – | 630 | 1150 |
| CCN(CC(F)(F)F)C(=O)Cn1cnc2sc(C(=O)N3CCN(c4ccc(C(F)(F)F)cc4)CC3)c(C)c2c1=O [Compound 130, N-ethyl-2-(5-methyl-4-oxo-6-(4-(4-(trifluromethyl)phenyl)piperazine-1-carbonyl)thieno[2,3-d]pyrimidin-3(4H)-yl)-N-(2,2,2-trifluoroethyl)acetamide] | – | 390 | 3470 |
| Cc1c(C(=O)N2CCN(c3ccccc3F)CC2)sc2ncn(CC(=O)Nc3ccc(C(F)(F)F)cc3)c(=O)c12 [Compound 142, 2-(6-(4-(2-fluorophenyl)piperazine-1-carbonyl)-5-methyl-4-oxothieno[2,3-d]pyrimidin-3(4H)-yl)-N-(4-(trifluoromethyl)phenyl)acetamide] | – | 700 | 1160 |
